For data set [1], the system named is HT29 cells. Kind of data set: Cell viability (MTT assay), HT29. It is filed as cell-based. The following applies: Homo sapiens, HT-29, 96 h treatment, read-out: GI50 ± SD HT29. As to the method: (§1) SW480 (human colon adenocarcinoma, adherent, epithelial, ATCC number: CCL-228), HT29 (human colon adenocarcinoma, adherent, epithelial, ATCC number: HTB-38), and HCT116 (human colon adenocarcinoma, adherent, epithelial-like, ATCC number: CCL-247) cells were maintained in RPMI-1640 medium (Sigma-Aldrich). Medium was supplemented with heat-inactivated FBS (Biowest), penicillin–streptomycin (Sigma; with 10 000 units penicillin and 10 mg streptomycin per mL in 0.9% NaCl) and L-glutamine (Sigma; 200 mM solution). Cell cultures were cultivated at 37 °C, maintaining a humidified atmosphere consisting of 5% CO2. Gibco™ trypsin–EDTA (0.05%) was used for cell passage.
(§2) To evaluate cell viability, SW480, HT29, and HCT116 cells were harvested from culture flasks by trypsinization and seeded into 96-well plates in 4000 cells per well, 3000 cells per well and 4000 cells per well densities, respectively. After 24 h preincubation period, cells were treated in triplicates with nine different doses of each compound (6a–o and 7a–c) for 96 h. After treatment compound solutions were replaced with MTT solution (MTT reagent in PBS, […]) diluted in a 6 : 1 ratio in non-supplemented RPMI-1640 medium and were additionally incubated for 2 h. After incubation, the medium was removed, and formazan product was dissolved in DMSO. Optical densities were measured at 550 nm with TECAN Infinite® M200 PRO microplate reader using a reference wavelength of 690 nm to correct unspecific absorption. The quantity of viable cells was normalized to untreated controls. The GI50 values were calculated from dose–response curves.
(In general: Tetrazolium dyes change colour on reduction, which living cells bring about.)

For data set [2], the system named is HT29 cells. Description: Viability staining via Calcein AM/Hoechst/PI, HT29. It counts as cell-based, human. The note with it: 20 µM, 24 h (Fig. S136 legend), method block: 4 μM, 96 h. As to the method: SW480, HT29 and HCT116 cells were seeded in 24-well plates in a cell density of 6000 cells per well and settled for 24 h. Afterwards cells were treated with 4 μM of test compounds 6a, c, f, h, m–o for 96 h. Cells were stained with propidium iodide (Sigma Aldrich, final concentration 2 μg mL^−1) and Hoechst 33342 (ThermoFisher Scientific, final concentration 0.5 μM) for 60 min and with Calcein AM (Merck, BioReagent, final concentration 50 μM) for 15 min, washed two times with PBS and finally covered with PBS for further analysis. Fluorescence microscopic evaluation was performed on a Evos FL Cell Imaging System (ThermoFisher Scientific).

The nature of data set [3]: Determination of HPLC–log P. It counts as physicochemical. The note with it: reversed-phase HPLC on apHera C18 column; methanol / 0.01 M phosphate buffer pH 7.4; mean ± SD. As to the method: HPLC–log P values were determined using Shimadzu HPLC system equipped with apHera C18 column (10 × 6 mm, 5 μm, Supelco, Bellefonte, PA, USA). Each sample was dissolved in the internal standard mixture, consisting of triphenylene (99.9%, Carl Roth) and toluene (≥98%, Sigma-Aldrich). Analysis was performed at 1.5 mL min^−1 flow rate in the linear gradient where mobile phase consisted of methanol and 0.01 M phosphate buffer (pH 7.4). The HPLC–log P values were calculated from the measured retention times using previously published equation.[57]

The next data set addresses T1, human serum albumin (Homo sapiens, UniProt P02768).
T1 construct: purchased Chiral Technologies, DAICEL Group, Europe SAS, France CHIRALPAK®HAS (50 × 3 mm, 5 μm)
Description: Plasma protein binding (PPB), HPLC on albumin-bound stationary phase. It counts as in vitro ADME. The following applies: pH 7.4, binding to human serum albumin, HPLC method. Here is the method:
Retention times of the analytes were measured with Shimadzu HPLC system on the CHIRALPAK®HAS stationary phase (50 × 3 mm, 5 μm, Chiral Technologies, DAICEL Group, Europe SAS, France). The mobile phase A consisted of 50 mM aqueous ammonium acetate buffer (pH 7.4) and phase B of 2-propanol according to Valko et al.[65] Analysis was performed at prolonged 1 mL min^−1 flow rate in the linear gradient. Retention capacity factors (k′) were calculated by using DMSO or a substance with 0% HAS binding for systems' dead time (Rt0). The system was calibrated by injecting the reference compounds: acetylsalicylic acid (CAS 69-72-7), betamethasone (CAS 378-44-9), budesonide (CAS 5133-22-3), carbamazepine (CAS 298-46-4), cimetidine (CAS 51481-61-9), ciprofloxacin (CAS 85721-33-1), indomethacin (CAS 53-86-1), isoniazid (CAS 54-85-3), metronidazole (CAS 443-48-1), nicardipine (CAS 55985-32-5), nizatidine (CAS 76963-41-2) and warfarin (CAS 81-81-2) obtained from Sigma-Aldrich, diclofenac (CAS 15307-86-5) from EMD Chemicals Inc., flumazenil (CAS 78755-81-4) from ABX and ketoprofen (CAS 22071-15-4) from LKT Labs. The logarithmic capacity factors of the references' Rt (log(k′)) on the HSA column were plotted against the %PPB values from literature. The slope and the intercept were used to convert the log(k′) of the compounds (6a, c, f, h, m–o) to %PPB using the regression equation.[66]

For data set [4], the system named is HCT116 cells. Description: Cell viability (MTT assay), HCT116. It counts as cell-based. The following applies: Homo sapiens, HCT-116, 96 h treatment, read-out: GI50 ± SD HCT116. As to the method: as §1, §2
For data set [5], the system named is HCT116 cells. Description: Viability staining via Calcein AM/Hoechst/PI, HCT116. The note with it: 20 µM, 24 h (Fig. S134 legend), method block: 4 μM, 96 h. It is filed as cell-based, human. Here is the method: (§3) SW480, HT29 and HCT116 cells were seeded in 24-well plates in a cell density of 6000 cells per well and settled for 24 h. […] Cells were stained with propidium iodide (Sigma Aldrich, final concentration 2 μg mL^−1) and Hoechst 33342 (ThermoFisher Scientific, final concentration 0.5 μM) for 60 min and with Calcein AM (Merck, BioReagent, final concentration 50 μM) for 15 min, washed two times with PBS and finally covered with PBS for further analysis. Fluorescence microscopic evaluation was performed on a Evos FL Cell Imaging System (ThermoFisher Scientific).

Data set [6] deals with HCT116 cells. Description: Cell cycle distribution by flow cytometry (FACS). It is filed as cell-based, human. The note with it: HCT116, 72 h, lowest concentration of 5 μM. Here is the method: HCT116 cells (40 000 cells per well) were treated with the test compounds (6c, 6m) for 72 h in the concentration range of 5, 10 and 20 μM. After treatment cells were washed with DPBS (Sigma; modified, without calcium chloride and magnesium chloride) and trypsinized using a trypsin–EDTA solution (Gibco™, 0.05%). After additional washing with DPBS, cells were stained at +4 °C overnight using PI/HFS solution (50 μg mL^−1).[67] Samples were then analysed using Guava® easyCyte™ 8HT (Merck Millipore) flow cytometer with Guava Clean 3.1 software. The amount of debris was in the range of 9.2 ± 2.0%.

Data set [7] has as its system SW480 cells. Kind of data set: Cell viability (MTT assay), SW480. It counts as cell-based. The following applies: Homo sapiens, SW480, 96 h, 96 h treatment, read-out: GI50 ± SD SW480. Here is the method:
as §1, §2

Data set [8] relates to SW480 cells. Description: Viability staining via Calcein AM/Hoechst/PI, SW480. It counts as cell-based, human. The following applies: 20 µM, 24 h (Fig. S135 legend), method block: 4 μM, 96 h. Here is the method: as §3
Another data set concerns SW620/Ad300. The arrangement: method as in PMID 24979269. The following applies: SW620/Ad300 multi-drug resistant daughter cell line; read-out: IC50 cytotoxicity; cited from earlier work.
The test system of a further data set is SW620. The arrangement: method as in PMID 24979269. The following applies: SW620 colorectal cancer cells; read-out: IC50 cytotoxicity; cited from earlier work.

T1 sequence (P02768 25-609): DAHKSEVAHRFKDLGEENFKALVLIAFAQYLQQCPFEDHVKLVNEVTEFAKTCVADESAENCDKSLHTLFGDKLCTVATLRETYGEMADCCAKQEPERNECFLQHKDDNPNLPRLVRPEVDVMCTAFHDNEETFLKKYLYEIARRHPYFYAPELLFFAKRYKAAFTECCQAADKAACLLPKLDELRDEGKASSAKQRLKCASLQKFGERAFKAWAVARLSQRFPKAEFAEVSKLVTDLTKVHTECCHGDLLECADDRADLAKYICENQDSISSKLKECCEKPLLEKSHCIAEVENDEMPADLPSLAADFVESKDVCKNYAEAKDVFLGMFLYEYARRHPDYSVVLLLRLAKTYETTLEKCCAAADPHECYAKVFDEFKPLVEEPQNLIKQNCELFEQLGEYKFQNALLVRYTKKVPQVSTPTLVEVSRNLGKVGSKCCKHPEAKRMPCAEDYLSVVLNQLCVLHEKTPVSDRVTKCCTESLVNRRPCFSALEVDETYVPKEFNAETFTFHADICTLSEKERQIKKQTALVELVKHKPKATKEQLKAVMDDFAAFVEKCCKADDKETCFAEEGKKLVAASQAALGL

A word on the GI50: it is the concentration that inhibits growth by half. What is called chromatographic logP is lipophilicity estimated from chromatographic retention. Low readings indicate lower lipophilicity, high ones higher lipophilicity. What is called melting point is the temperature of the solid-liquid transition. Broadly, the fraction unbound is free concentration divided by total concentration. Low readings indicate little free substance, high ones much free substance. `CCOC(=O)c1c(-c2ccccc2)c(-c2ccc(F)cc2)nn1CC(=O)c1ccc(F)cc1` [Compound 6m, Ethyl 3-(4-fluorophenyl)-1-[2-(4-fluorophenyl)-2-oxoethyl]-4-phenyl-1H-pyrazole-5-carboxylate]: the melting point was in the range of 104 to 105 °C. Also, the GI50 in the data set with HT29 cells [1] was determined as 2.69 ± 0.11 µM. Further, the “PI staining (necrosis)” value in the data set on HT29 cells [2] is “no involvement of necrosis”. Further, in data set [3], the chromatographic logP turned out to be 4.545 ± 0.006. This compound showed a fraction unbound on human serum albumin of 0.034. In the data set with HCT116 cells [4], the GI50 was 1.46 ± 0.247 µM. In addition, the “PI staining (necrosis)” value in the data set on HCT116 cells [5] was “no involvement of necrosis”. Besides, the G2/M phase in the data set on HCT116 cells [6] (negative control 14.2 ± 1.1%) is recorded as 26.9 ± 0.8%. The G1 phase in the data set on HCT116 cells [6] (negative control 49.5 ± 1.8%) worked out at 61.0 ± 1.8%. The GI50 in the data set with SW480 cells [7] is 1.44 ± 0.173 µM. In the data set on SW480 cells [8], the “PI staining (necrosis)” value is reported as “no involvement of necrosis”.

A word on the IC50: it is the point on the concentration scale where inhibition reaches its midpoint. On to `COC(=O)c1c(-c2ccc(O)cc2)c(-c2ccc(O)cc2)cn1CC(=O)c1ccc(OC)cc1` [Lamellarin O], for which the results for the 50% inhibitory concentration (IC50) in the data set with SW620/Ad300 and in the data set on SW620 were 22.3 µM and 20 µM, respectively.

(Values after publication PMC9999251, “Pyrazole-based lamellarin O analogues: synthesis, biological evaluation and structure–activity relationships” (RSC Advances, 2023).)
